Here are results for 27 compounds from patent US6495559B2, “NPY Y5 receptor antagonists” (Merck & Co., Inc., priority 1998, dated 2002).

The structures appear in SMILES notation.

For `CS(=O)(=O)N1CC2(CCN(C(=O)Nc3ccc(-c4ccncc4)cc3)CC2)c2ccccc21`, the melting point (commonly the temperature, or range, at which the solid turns liquid) was in the range of 272 to 274 °C. Consider `CCc1cc(-c2ccc(NC(=O)N3CCC4(CC3)CN(S(C)(=O)=O)c3ccccc34)cc2)ccn1.Cl`, for which the melting point fell in the range of 220 to 222 °C. The compound `CS(=O)(=O)N1CC2(CCN(C(=O)Nc3ccc(C(=O)c4ccccc4)cc3)CC2)c2ccccc21.Cl` showed a melting point of 222 to 225 °C. As for `CS(=O)(=O)N1CC2(CCN(C(=O)Nc3cc(-c4ccccc4)no3)CC2)c2ccccc21`, the melting point was 235 to 237 °C.

Turning to `CCS(=O)(=O)N1CC2(CCN(C(=O)Nc3cn(-c4ccccc4)cn3)CC2)c2ccccc21.Cl`, the melting point lay within 139 to 140 °C. For `CCS(=O)(=O)N1CC2(CCN(C(=O)Nc3cn(-c4ccccc4)cn3)CC2)c2cc(F)ccc21.Cl`, the melting point lay within 140 to 141 °C.

As for `CS(=O)(=O)N1CC2(CCN(C(=O)Nc3cnc(-c4cccc(F)c4)cn3)CC2)c2ccccc21` [Compound 101, N-[5-(3-fluorophenyl)-2-pyrazinyl]-1-methylsulfonylspiro[indoline-3,4′-piperidine]-1′-carboxamide], the melting point lay in the range of 203 to 205 °C. On to `COc1ccccc1-c1cnc(NC(=O)N2CCC3(CC2)CN(S(C)(=O)=O)c2ccccc23)cn1` [Compound 102, N-[5-(2-methoxyphenyl)-2-pyrazinyl]-1-methylsulfonylspiro[indoline-3,4′-piperidine]-1′-carboxamide], for which the melting point was 186 to 188 °C.

Regarding `CS(=O)(=O)N1CC2(CCN(C(=O)Nc3cnc(-c4ccccc4Cl)cn3)CC2)c2ccccc21` [Compound 103, N-[5-(2-chlorophenyl)-2-pyrazinyl]-1-methylsulfonylspiro[indoline-3,4′-piperidine]-1′-carboxamide], the melting point fell in the range of 197 to 199 °C.

As to `CS(=O)(=O)N1CC2(CCN(C(=O)Nc3cnc(-c4ccccn4)cn3)CC2)c2ccccc21` [Compound 104, 1-methylsulfonyl-N-[5-(2-pyridyl)-2-pyrazinyl]spiro[indoline-3,4′-piperidine]-1′-carboxamide], the melting point was in the range of 234 to 235 °C. In turn, `C=CCc1cnc(NC(=O)N2CCC3(CC2)CN(S(C)(=O)=O)c2ccccc23)cn1` [Compound 105, 1-methylsulfonyl-N-[5-(2-propenyl)-2-pyrazinyl]spiro[indoline-3,4′-piperidine]-1′-carboxamide] gave a melting point of 180.5 to 182.7 °C.

With `CCc1nc(-c2ccc(NC(=O)N3CCC4(CC3)CN(S(C)(=O)=O)c3ccccc34)cc2)cs1` [Compound 107, N-[4-(2-ethyl-4-thiazolyl)phenyl]-1-methylsulfonylspiro[indoline-3,4′-piperidine]-1′-carboxamide], the melting point was in the range of 242 to 242.5 °C.

Regarding `CS(=O)(=O)N1CC2(CCN(C(=O)Nc3ccc(-c4nccs4)cc3)CC2)c2ccccc21` [Compound 111, 1-methylsulfonyl-N-[4-(2-thiazolyl)phenyl]spiro[indoline-3,4′-piperidine]-1′-carboxamide], the melting point was 143.2 to 147.4 °C. `CS(=O)(=O)N1CC2(CCN(C(=O)Nc3ccc(-c4ccccc4)cn3)CC2)c2ccccc21` [Compound 112, 1-methylsulfonyl-N-(5-phenyl-2-pyridyl)spiro[indoline-3,4′-piperidine]-1′-carboxamide] returned a melting point of 214 °C. For the compound `CS(=O)(=O)N1CC2(CCN(C(=O)Nc3cnc(-c4ccccc4)nc3)CC2)c2ccccc21` [Compound 113, 1-methylsulfonyl-N-(2-phenyl-5-pyrimidinyl)spiro[indoline-3,4′-piperidine]-1′-carboxamide], the melting point was in the range of 251 to 253 °C. On to `CS(=O)(=O)N1CC2(CCN(C(=O)Nc3ccc(-c4ccccc4)nc3)CC2)c2ccccc21` [Compound 114, 1-methylsulfonyl-N-(2-phenyl-5-pyridyl)spiro[indoline-3,4′-piperidine]-1′-carboxamide], for which the melting point was 224 °C. Regarding `CS(=O)(=O)N1CC2(CCN(C(=O)Nc3ncc(-c4ccccc4)cn3)CC2)c2ccccc21` [Compound 115, 1-methylsulfonyl-N-(5-phenyl-2-pyrimidinyl)spiro[indoline-3,4′-piperidine]-1′-carboxamide], the melting point lay in the range of 122 to 123 °C. As for `CS(=O)(=O)N1CC2(CCN(C(=O)Nc3ccc(N4CCCC4)nc3)CC2)c2ccccc21` [Compound 116, 1-methylsulfonyl-N-[2-(1-pyrrolidinyl)-5-pyridyl]spiro[indoline-3,4′-piperidine]-1′-carboxamide], the melting point fell in the range of 252 to 254 °C. Next, `CS(=O)(=O)N1CC2(CCN(C(=O)Nc3nc(-c4ccccc4)co3)CC2)c2ccccc21` [Compound 119, 1-methylsulfonyl-N-(4-phenyloxazol-2-yl)spiro[indoline-3,4′-piperidine]-1′-carboxamide]: 189 to 192 °C. On to `CS(=O)(=O)N1CC2(CCN(C(=O)Nc3nsc(-c4ccccc4)n3)CC2)c2ccccc21` [Compound 123, 1-methylsulfonyl-N-(5-phenyl-1,2,4-thiadiazol-3-yl)spiro[indoline-3,4′-piperidine]-1′-carboxamide], for which the melting point fell in the range of 133 to 136 °C. As for `COc1cccc(-n2cnc(NC(=O)N3CCC4(CC3)CN(S(C)(=O)=O)c3ccccc34)c2)c1` [Compound 126, N-[1-(3-methoxyphenyl)imidazol-4-yl]-1-methylsulfonylspiro[indoline-3,4′-piperidine]-1′-carboxamide], the melting point was in the range of 216 to 218 °C. Next, `CS(=O)(=O)N1CC2(CCN(C(=O)Nc3cn(-c4cccc(Cl)c4)cn3)CC2)c2ccccc21` [Compound 127, N-[1-(3-chlorophenyl)imidazol-4-yl]-1-methylsulfonylspiro[indoline-3,4′-piperidine]-1′-carboxamide]: 232 to 234 °C; `COc1cccc2oc(NC(=O)N3CCC4(CC3)CN(S(C)(=O)=O)c3ccccc34)nc12` [Compound 128, N-(4-methoxybenzoxazol-2-yl)-1-methylsulfonylspiro[indoline-3,4′-piperidine]-1′-carboxamide]: 195 to 199 °C; `CS(=O)(=O)N1CC2(CCN(C(=O)Nc3nc4cc(F)ccc4s3)CC2)c2ccccc21` [Compound 129, N-(5-fluorobenzothiazol-2-yl)-1-methylsulfonylspiro[indoline-3,4′-piperidine]-1′-carboxamide]: 243 to 244 °C.

Turning to `Cc1ccc2nc(NC(=O)N3CCC4(CC3)CN(S(C)(=O)=O)c3ccccc34)cnc2c1` [Compound 130, 1-methylsulfonyl-N-(6-methylquinoxalin-2-yl)spiro[indoline-3,4′-piperidine]-1′-carboxamide], the melting point was 224 to 225 °C. Compound `Cc1cccc2ccc(NC(=O)N3CCC4(CC3)CN(S(C)(=O)=O)c3ccccc34)nc12` [Compound 131, 1-methylsulfonyl-N-(8-methylquinolin-2-yl)spiro[indoline-3,4′-piperidine]-1′-carboxamide] had a melting point of 219 to 220 °C. `CS(=O)(=O)N1CC2(CCN(C(=O)Nc3cnc4ccc(Cl)cc4n3)CC2)c2ccccc21` [Compound 132, N-(7-chloroquinoxalin-2-yl)-1-methylsulfonylspiro[indoline-3,4′-piperidine]-1′-carboxamide] returned a melting point of 213 to 214 °C.
